Measured values reported in patent publication US20060009493A1, “Indolinone hydrazides as c-Met inhibitors” (Sugen, Inc., priority 2003, published 2006).
“And” between values parts separate entries of the source, which are not always exact repeats. Equal values may be shown once.

The molecules below were run against T1, GST fusion protein containing the Met kinase domain (Homo sapiens, UniProt P08581) (assay: MET Transphosphorylation Assay (ELISA, poly(Glu,Tyr) 4:1 substrate)). Conditions: met transphosphorylation of poly(glutamic acid:tyrosine 4:1) substrate; two values in a cell separated by '/'.
T1 construct: Purified GST fusion protein containing the Met kinase domain, Sugen, Inc
T1 sequence (P08581 1078-1345 limits assumed): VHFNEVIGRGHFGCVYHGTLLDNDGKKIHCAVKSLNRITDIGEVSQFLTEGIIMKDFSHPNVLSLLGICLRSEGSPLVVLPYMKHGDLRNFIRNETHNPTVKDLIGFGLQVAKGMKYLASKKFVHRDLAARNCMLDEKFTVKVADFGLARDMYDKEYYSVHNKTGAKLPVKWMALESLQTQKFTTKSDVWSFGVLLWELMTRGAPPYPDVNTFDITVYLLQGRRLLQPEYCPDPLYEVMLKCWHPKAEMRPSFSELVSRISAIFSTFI
Format: biochemical
Protocol: MET Transphosphorylation Assay
This assay is used to measure phosphotyrosine levels on a poly(glutamic acid:tyrosine (4:1)) substrate as a means for identifying agonists/antagonists of met transphosphorylation of the substrate.
• 1. […] PBS, Gibco Catalog # 450-1300EB • 4. 50 mM HEPES • 5. […] Purified GST fusion protein containing the Met kinase domain, Sugen, Inc. • 7. TBST Buffer. • 8. 10% aqueous (MilliQue H2O) DMSO. • 9. […] 2× Kinase Dilution Buffer: for 100 ml, mix 10 mL 1M HEPES at pH 7.5 with 0.4 mL 5% BSA/PBS, 0.2 mL 0.1 M sodium orthovanadate and 1 mL 5M sodium chloride in 88.4 mL dH2O. • 11. 4×ATP Reaction Mixture: for 10 mL, mix 0.4 mL 1 M manganese chloride and 0.02 mL 0.1 M ATP in […] dH2O. • 12. 4× Negative Controls Mixture: for 10 mL, mix 0.4 mL 1 M manganese chloride in 9.6 mL dH2O.
13. […] 500 mM EDTA. • 15. Antibody Dilution Buffer: for 100 mL, mix 10 mL 5% BSA/PBS, 0.5 mL 5% Carnation Instant Milk® in PBS and 0.1 mL 0.1 M sodium orthovanadate in 88.4 mL TBST. • 16. Rabbit polyclonal antophosphotyrosine antibody, Sugen, Inc. • 17. Goat anti-rabbit horseradish peroxidase conjugated antibody, Biosource, Inc. • 18. ABTS Solution: for 1 L, mix 19.21 g citric acid, 35.49 g Na2HPO4 and 500 mg ABTS with sufficient dH2O to make 1 L. • 19. ABTS/H2O2: mix 15 mL ABST solution with 2 μL H2O2 five minutes before use. • 20. 0.2 M HCl Procedure: • 1. Coat ELISA plates with 2 μg Poly(Glu-Tyr) in 100 μL PBS, store overnight at 4° C. • 2. Block plate with 150 μL of 5% BSA/PBS for 60 min. • 3. Wash plate twice with PBS, once with 50 mM Hepes buffer pH 7.4. • 4. Add 50 μl of the diluted kinase to all wells. (Purified kinase is diluted with Kinase Dilution Buffer. Final concentration should be 10 ng/well.) • 5. Add 25 μL of the test compound (in 4% DMSO) or DMSO alone (4% in dH2O) for controls to plate. • 6. Incubate the kinase/compound mixture for 15 minutes. • 7. Add 25 μL of 40 mM MnCl2 to the negative control wells. • 8. Add 25 μL ATP/MnCl2 mixture to the all other wells (except the negative controls). Incubate for 5 min. • 9. Add 25 μL 500 mM EDTA to stop reaction. • 10. Wash plate 3× with TBST. • 11. Add 100 μL rabbit polyclonal anti-Ptyr diluted 1:10,000 in Antibody Dilution Buffer to each well. Incubate, with shaking, at room temperature for one hour. • 12. Wash plate 3× with TBST. • 13. […] Add 100 μL per well and incubate at room temperature, with shaking, for one hour. • 14. Wash plate 1× with PBS. • 15. Add 100 μl of ABTS/H2O2 solution to each well. • 16. If necessary, stop the development reaction with the addition of […] of 0.2M HCl per well. • 17.
In the case of `Cc1ccc(C)c2c1NC(=O)/C2=N\NC(=O)Cc1ccc(O)cc1` [II-31, (4-Hydroxy-phenyl)-acetic acid [(3Z)-4,7-dimethyl-2-oxo-1,2-dihydro-indol-3-ylidene]-hydrazide], the IC50 is reported as 15 nM. With `Cc1ccc(C)c2c1NC(=O)/C2=N\NC(=O)Cc1ccc(O)c(F)c1` [II-49, (3-Fluoro-4-hydroxy-phenyl)-acetic acid [(3Z)-4,7-dimethyl-2-oxo-1,2-dihydro-indol-3-ylidene]-hydrazide] the IC50 was less than 9.1 nM. With `O=C(Cc1ccc(Br)cc1)N/N=C1\C(=O)Nc2ccccc21` [II-34, (4-Bromo-phenyl)-acetic acid [(3Z)-2-oxo-1,2-dihydro-indol-3-ylidene]-hydrazide] the IC50 was greater than 20000 nM. For `Cc1cccc2c1/C(=N/NC(=O)Cc1ccc(O)cc1)C(=O)N2` [II-47, (4-Hydroxy-phenyl)-acetic acid [(3Z)-4-methyl-2-oxo-1,2-dihydro-indol-3-ylidene]-hydrazide], the IC50 was 22 nM. `O=C(Cc1ccc(O)cc1)N/N=C1\C(=O)Nc2ccc(S(=O)(=O)Cc3c(Cl)cccc3Cl)cc21` [Example I-8, (4-Hydroxy-phenyl)-acetic acid [(3Z)-5-(2,6-dichloro-phenylmethanesulfonyl)-2-oxo-1,2-dihydro-indol-3-ylidene]-hydrazide] was tested, and the IC50 was 7 nM. For `O=C(Cc1ccc(O)c(F)c1)N/N=C1\C(=O)Nc2c(Cl)ccc(Cl)c21` [II-55, (3-Fluoro-4-hydroxy-phenyl)-acetic acid [(3Z)-4,7-dichloro-2-oxo-1,2-dihydro-indol-3-ylidene]-hydrazide], the IC50 was less than 9 nM. `N#Cc1cc(CC(=O)N/N=C2\C(=O)Nc3ccc(C(=O)O)c(Cl)c32)ccc1O` [II-111, (3Z)-4-Chloro-3-{[2-(3-cyano-4-hydroxy-phenyl)-acetyl]-hydrazono}-2-oxo-2,3-dihydro-1H-indole-5-carboxylic acid] was tested, and the IC50 was 3340 nM. In the case of `COc1cc(CC(=O)N/N=C2\C(=O)Nc3ccccc32)ccc1O` [II-40, (4-Hydroxy-3-methoxy-phenyl)-acetic acid [(3Z)-2-oxo-1,2-dihydro-indol-3-ylidene]-hydrazide], the IC50 is reported as 240 nM. Work on `CC(C(=O)N/N=C1\C(=O)Nc2ccc(Cl)c(Cl)c21)c1ccc(O)cc1` (stereo not shown) [II-44] yielded an IC50 of 22 nM. For `O=C(Cc1c[nH]c(=O)[nH]c1=O)N/N=C1\C(=O)Nc2ccccc21` [II-90, (2,4-Dioxo-1,2,3,4-tetrahydro-pyrimidin-5-yl)-acetic acid [(3Z)-2-oxo-1,2-dihydro-indol-3-ylidene]-hydrazide], the IC50 was greater than 20000 nM. For `O=C(Cc1ccc(O)cc1)N/N=C1\C(=O)Nc2c(Cl)cccc21` [II-36, (4-Hydroxy-phenyl)-acetic acid [(3Z)-7-chloro-2-oxo-1,2-dihydro-indol-3-ylidene]-hydrazide], the IC50 was 22 nM. In the case of `Nc1cccc(CC(=O)N/N=C2\C(=O)Nc3c(Cl)ccc(Cl)c32)c1` [II-78, (3-Amino-phenyl)-acetic acid [(3Z)-4,7-dichloro-2-oxo-1,2-dihydro-indol-3-ylidene]-hydrazide], the IC50 is reported as 110 nM. For `COC(C(=O)N/N=C1\C(=O)Nc2ccccc21)c1ccccc1` (stereo not shown) [Example I-5, Methoxy-phenyl-acetic acid [(3Z)-2-oxo-1,2-dihydro-indol-3-ylidene]-hydrazide], the IC50 was > 20000 nM and 13600 nM. With `CC(C)Oc1ccc(CC(=O)N/N=C2\C(=O)Nc3ccccc32)cc1` [II-9, (4-Isopropoxy-phenyl)-acetic acid [(3Z)-2-oxo-1,2-dihydro-indol-3-ylidene]-hydrazide] the IC50 was greater than 20000 nM. `O=C(Cc1ccc(O)cc1)N/N=C1\C(=O)Nc2ccccc21` [II-23, (4-Hydroxy-phenyl)-acetic acid [(3E)-2-oxo-1,2-dihydro-indol-3-ylidene]-hydrazide] showed an IC50 of 520 nM. `COc1ccc2c(c1Cl)/C(=N/NC(=O)Cc1ccc(O)cc1)C(=O)N2` [II-94, (4-Hydroxy-phenyl)-acetic acid [(3Z)-4-chloro-5-methoxy-2-oxo-1,2-dihydro-indol-3-ylidene]-hydrazide] gave an IC50 of 21 nM.
